Laboratory results taken from PubChem BioAssay AID248 (DTP/NCI, 2004).
Values joined by “and” are separate entries in the source; they are usually repeats but may differ in a detail not shown here. Identical values can stand only once. Toxic doses and inconclusive results are not listed.

Test system: L1210 leukemia ip in BDF1 mice, survival T/C
Experiment: NCI In Vivo Anticancer Drug Screen. Data for tumor model L1210 Leukemia (intraperitoneal) in B6D2F1 (BDF1) mice
Conditions: endpoint: mean survival time, higher = longer survival
Procedure, shortened: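 In this screen, tumor-bearing mice given compound are compared to those given vehicle, and their survival values are reported as a treated-to-control quotient.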

[1] = dose: 25.0 mg/kg/injection, schedule: Q01DX009 (ip), vehicle: saline
[2] = dose: 50.0 mg/kg/injection, schedule: Q01DX009 (ip), vehicle: saline
[3] = dose: 100.0 mg/kg/injection, schedule: Q01DX001 (ip), vehicle: saline
[4] = dose: 100.0 mg/kg/injection, schedule: Q04DX003 (ip), vehicle: saline with Tween-80
[5] = dose: 200.0 mg/kg/injection, schedule: Q04DX003 (ip), vehicle: saline with Tween-80
[6] = dose: 75.0 mg/kg/injection, schedule: Q04DX003 (ip), vehicle: saline
[7] = dose: 100.0 mg/kg/injection, schedule: Q04DX003 (ip), vehicle: Klucel (hydroxypropylcellulose) (HPC)
[8] = dose: 400.0 mg/kg/injection, schedule: Q04DX003 (ip), vehicle: saline with Tween-80
[9] = dose: 100.0 mg/kg/injection, schedule: Q01DX001 (ip), vehicle: other
[10] = dose: 200.0 mg/kg/injection, schedule: Q01DX001 (ip), vehicle: other
[11] = dose: 400.0 mg/kg/injection, schedule: Q01DX001 (ip), vehicle: other
[12] = dose: 100.0 mg/kg/injection, schedule: Q04DX003 (ip), vehicle: saline
[13] = dose: 200.0 mg/kg/injection, schedule: Q04DX003 (ip), vehicle: saline
[14] = dose: 400.0 mg/kg/injection, schedule: Q04DX003 (ip), vehicle: saline

Compound: CS(=O)(=O)NN
- T/C [1]: 89 % of control
- T/C (dose: 50.0 mg/kg/injection, schedule: Q01DX001 (ip), vehicle: saline): 100 % of control
- T/C [2]: 94 % of control
- T/C [3]: 102 % of control and 103 % of control

Compound: CC(=O)Nc1ccc(OC(=O)Nc2ccc(Cl)cc2C(F)(F)F)cc1
- T/C (dose: 50.0 mg/kg/injection, schedule: Q01DX009 (ip), vehicle: saline with Tween-80): 93 % of control
- T/C (dose: 100.0 mg/kg/injection, schedule: Q01DX009 (ip), vehicle: saline with Tween-80): 100 % of control
- T/C (dose: 200.0 mg/kg/injection, schedule: Q01DX009 (ip), vehicle: saline with Tween-80): 104 % of control

Compound: O=C(OC1(c2ccccc2)OC(=O)c2ccccc21)c1ccccc1C(=O)c1ccccc1 (configuration not stated)
- T/C [4]: 92 % of control
- T/C [5]: 91 % of control

Compound: CCN(CC)CCCC(C)Nc1ccnc(/C=C/c2ccc(Cl)cc2)c1 (configuration not stated)
- T/C (dose: 12.0 mg/kg/injection, schedule: Q01DX009 (ip), vehicle: Klucel (hydroxypropylcellulose) (HPC)): 92 % of control
- T/C (dose: 12.5 mg/kg/injection, schedule: Q04DX003 (ip), vehicle: Klucel (hydroxypropylcellulose) (HPC)): 97 % of control
- T/C (dose: 25.0 mg/kg/injection, schedule: Q01DX009 (ip), vehicle: Klucel (hydroxypropylcellulose) (HPC)): 100 % of control
- T/C [1]: 101 % of control
- T/C (dose: 25.0 mg/kg/injection, schedule: Q04DX003 (ip), vehicle: Klucel (hydroxypropylcellulose) (HPC)): 103 % of control
- T/C (dose: 50.0 mg/kg/injection, schedule: Q01DX009 (ip), vehicle: Klucel (hydroxypropylcellulose) (HPC)): 95 % of control
- T/C [2]: 95 % of control
- T/C (dose: 50.0 mg/kg/injection, schedule: Q04DX003 (ip), vehicle: Klucel (hydroxypropylcellulose) (HPC)): 97 % of control
- T/C [6]: 105 % of control
- T/C [7]: 96 % of control
- T/C (dose: 300.0 mg/kg/injection, schedule: Q04DX003 (ip), vehicle: saline): 93 % of control

Compound: COc1ccc(OC)c(/C=C/c2ccnc3ccccc23)c1
- T/C (dose: 50.0 mg/kg/injection, schedule: Q01DX001 (ip), vehicle: carboxymethylcellulose (CMC)): 93 % of control
- T/C (dose: 100.0 mg/kg/injection, schedule: Q01DX001 (ip), vehicle: carboxymethylcellulose (CMC)): 96 % of control
- T/C (dose: 200.0 mg/kg/injection, schedule: Q01DX001 (ip), vehicle: carboxymethylcellulose (CMC)): 91 % of control
- T/C (dose: 400.0 mg/kg/injection, schedule: Q01DX001 (ip), vehicle: carboxymethylcellulose (CMC)): 87 % of control

Compound: O=[N+]([O-])c1ccc(/C=N/N(Cc2ccccc2)c2ccccc2)s1
- T/C [4]: 87 % of control
- T/C [8]: 89 % of control

Compound: O=S(=O)(ON1C=CC=CC1)ON1C=CC=CC1
- T/C (dose: 25.0 mg/kg/injection, schedule: Q04DX002 (ip), vehicle: saline with Tween-80): 106 % of control
- T/C (dose: 50.0 mg/kg/injection, schedule: Q04DX002 (ip), vehicle: saline with Tween-80): 95 % of control
- T/C (dose: 100.0 mg/kg/injection, schedule: Q04DX002 (ip), vehicle: saline with Tween-80): 106 % of control

Compound: CN=C(N)c1ccc(NC(=O)c2ccc(C(=O)Nc3ccc(C(N)=NC)cc3)c(Cl)c2)cc1
- T/C (dose: 1.88 mg/kg/injection, schedule: Q01DX Z (ip), vehicle: saline): 117 % of control
- T/C (dose: 7.5 mg/kg/injection, schedule: Q01DX Z (ip), vehicle: saline): 252 % of control
- T/C (dose: 15.0 mg/kg/injection, schedule: Q01DX Z (ip), vehicle: saline): 183 % of control
- T/C (dose: 60.0 mg/kg/injection, schedule: Q01DX Z (oral), vehicle: saline): 105 % of control
- T/C (dose: 62.5 mg/kg/injection, schedule: Q## X010 (oral), vehicle: saline): 102 % of control
- T/C (dose: 120.0 mg/kg/injection, schedule: Q01DX Z (oral), vehicle: saline): 102 % of control
- T/C (dose: 125.0 mg/kg/injection, schedule: Q## X010 (oral), vehicle: saline): 98 % of control
- T/C (dose: 240.0 mg/kg/injection, schedule: Q01DX Z (oral), vehicle: saline): 103 % of control
- T/C (dose: 500.0 mg/kg/injection, schedule: Q## X010 (oral), vehicle: saline): 102 % of control

Compound: CCCCCCCCCCCCCCOS(=O)(=O)O
- T/C (dose: 37.5 mg/kg/injection, schedule: Q04DX003 (ip), vehicle: saline): 100 % of control
- T/C (dose: 75.0 mg/kg/injection, schedule: Q01DX001 (ip), vehicle: saline): 95 % of control
- T/C [6]: 94 % of control
- T/C (dose: 150.0 mg/kg/injection, schedule: Q01DX001 (ip), vehicle: saline): 92 % of control
- T/C (dose: 150.0 mg/kg/injection, schedule: Q04DX003 (ip), vehicle: saline): 92 % of control

Compound: CC1(C)C(C(=O)O)CC1C(=O)C(=O)O (configuration not stated)
- T/C (dose: 75.0 mg/kg/injection, schedule: Q01DX001 (ip), vehicle: carboxymethylcellulose (CMC)): 96 % of control
- T/C (dose: 150.0 mg/kg/injection, schedule: Q01DX001 (ip), vehicle: carboxymethylcellulose (CMC)): 96 % of control
- T/C (dose: 300.0 mg/kg/injection, schedule: Q01DX001 (ip), vehicle: carboxymethylcellulose (CMC)): 94 % of control

Compound: [N-]=[N+]=NC(=O)c1cccc2c1Cc1ccccc1-2
- T/C [4]: 96 % of control
- T/C [5]: 86 % of control
- T/C [8]: 96 % of control

Compound: N=C(N)c1ccc(Oc2ccc(-c3cc4ccc(C(=N)N)cc4[nH]3)cc2)cc1
- T/C (dose: 1.56 mg/kg/injection, schedule: Q01DX009 (ip), vehicle: saline with Tween-80): 90 % of control
- T/C (dose: 3.12 mg/kg/injection, schedule: Q01DX009 (ip), vehicle: saline with Tween-80): 106 % of control
- T/C (dose: 6.25 mg/kg/injection, schedule: Q04DX003 (ip), vehicle: saline): 100 % of control (2×) and 112 % of control
- T/C (dose: 12.5 mg/kg/injection, schedule: Q01DX009 (ip), vehicle: saline with Tween-80): 119 % of control
- T/C (dose: 12.5 mg/kg/injection, schedule: Q04DX003 (ip), vehicle: saline): 112 % of control and 120 % of control and 122 % of control
- T/C (dose: 25.0 mg/kg/injection, schedule: Q04DX003 (ip), vehicle: saline): 112 % of control

Compound: CC/C(=C(\CC)c1ccc(OCCOS(=O)(=O)c2ccccc2)cc1)c1ccc(OCCOS(=O)(=O)c2ccccc2)cc1
- T/C (dose: 12.5 mg/kg/injection, schedule: Q04DX002 (ip), vehicle: saline): 101 % of control
- T/C (dose: 25.0 mg/kg/injection, schedule: Q04DX002 (ip), vehicle: saline): 101 % of control
- T/C (dose: 50.0 mg/kg/injection, schedule: Q04DX002 (ip), vehicle: saline): 101 % of control

Compound: O=C(Nc1ccc(C(F)(F)F)c([N+](=O)[O-])c1)c1ccc(C(=O)Nc2ccc(C(F)(F)F)c([N+](=O)[O-])c2)cc1
- T/C [9]: 96 % of control
- T/C [10]: 93 % of control
- T/C [11]: 86 % of control

Compound: O=C1CC(c2ccc(Cl)cc2)C(=O)O1 (configuration not stated)
- T/C (dose: 100.0 mg/kg/injection, schedule: Q01DX001 (ip), vehicle: acetone): 98 % of control
- T/C (dose: 100.0 mg/kg/injection, schedule: Q04DX003 (ip), vehicle: alcohol): 98 % of control
- T/C (dose: 200.0 mg/kg/injection, schedule: Q01DX001 (ip), vehicle: acetone): 101 % of control
- T/C (dose: 200.0 mg/kg/injection, schedule: Q04DX003 (ip), vehicle: alcohol): 104 % of control
- T/C (dose: 400.0 mg/kg/injection, schedule: Q01DX001 (ip), vehicle: acetone): 94 % of control

Compound: Oc1c(Cl)c2nc3ccccc3nc2c2ccccc12
- T/C [7]: 95 % of control
- T/C (dose: 200.0 mg/kg/injection, schedule: Q04DX003 (ip), vehicle: Klucel (hydroxypropylcellulose) (HPC)): 97 % of control
- T/C (dose: 400.0 mg/kg/injection, schedule: Q04DX003 (ip), vehicle: Klucel (hydroxypropylcellulose) (HPC)): 98 % of control

Compound: O=C1C2CCCCC2C(=O)N1O (configuration not stated)
- T/C [3]: 94 % of control
- T/C [12]: 102 % of control
- T/C (dose: 200.0 mg/kg/injection, schedule: Q01DX001 (ip), vehicle: saline): 92 % of control
- T/C [13]: 96 % of control
- T/C (dose: 400.0 mg/kg/injection, schedule: Q01DX001 (ip), vehicle: saline): 94 % of control
- T/C [14]: 103 % of control

Compound: CC(C)NCC1CCCO1 (configuration not stated)
- T/C [12]: 94 % of control
- T/C [13]: 94 % of control
- T/C [14]: 97 % of control

Compound: CCCCCCCCN(CCCCCCCC)NC(C)=O
- T/C (dose: 50.0 mg/kg/injection, schedule: Q01DX001 (ip), vehicle: other): 96 % of control
- T/C [9]: 104 % of control
- T/C [10]: 96 % of control
- T/C [11]: 93 % of control
